Results reported in US8129163B2, “Gene suitable for alcohol dehydrogenase, vector and transformant” (Kaneka Corporation, priority 2006, dated 2012).

test system: enzyme derived from Candida parapsilosis IFO 1396 strain; conditions: cited from earlier work

Row | Structure (SMILES) | inhibition of enzyme activity (in words)
1 | OCCS [β-Mercaptoethanol] | inhibited
2 | O[C@H](CS)[C@H](O)CS (racemic) [Dithiothreitol] | inhibited

test system: RMA; format: biochemical, Candida maltosa IFO 1977 strain; conditions: not given

Row | Structure (SMILES) | Relative activity (%) of RMA after treatment with inhibitor
3 | O=C(O)CI [Iodoacetic acid] | 78.9%

same assay, conditions: inhibitor 0.01 mM, 30° C. for 30 minutes; untreated RMA = 100%

Row | Structure (SMILES) | Relative activity (%) of RMA after treatment with inhibitor
4 | NO [NH2OH] | 96.1%

same assay, conditions: inhibitor 0.05 mM, 30° C. for 30 minutes; untreated RMA = 100%

Row | Structure (SMILES) | Relative activity (%) of RMA after treatment with inhibitor
5 | O=C(O)c1cc[c]([Hg][Cl])cc1 [p-Chloromercuribenzoate] | 96.3%

same assay, conditions: inhibitor 50 mM, 30° C. for 30 minutes; untreated RMA = 100%

Row | Structure (SMILES) | Relative activity (%) of RMA after treatment with inhibitor
6 | C/C=C/C(=O)O [Crotonic acid] | 10.4%

test system: RMA; conditions: not given; remark: another data set of the same source

Row | Structure (SMILES) | activity
7 | C[C@@H](O)CO [(R)-1,2-Propandiol] | 0.7%
8 | CCC(O)CC [3-Pentanol] | 40%
9 | CCCC(C)O (stereo not drawn) [2-Pentanol] | 183%
10 | C[C@H](O)c1ccccc1 [(S)-1-Phenylethanol] | 307%
11 | CC(C)O [2-Propanol] | 66%
12 | OC1CCCCC1 [Cyclohexanol] | 30%
13 | C[C@H](O)CO [(S)-1,2-propandiol] | 0.7%
14 | C[C@H](O)CCO [(S)-1,3-Butandiol] | 9.5%
15 | C[C@@H](O)C[C@@H](C)O [(2R,4R)-2,4-Pentandiol] | 0.5%
16 | CCC(O)C(=O)O (stereo not drawn) [2-Hydroxybutyric acid] | 4.9%
17 | C[C@H](O)CN [(S)-1-Amino-2-propanol] | 2%
18 | CO [Methanol] | 0.6%
19 | CC(O)CC(C)O (stereo not drawn) [2,4-Pentandiol] | 34%
20 | CCCCCCC(C)O (stereo not drawn) [2-Octanol] | 134%
21 | C[C@@H](O)CCO [(R)-1,3-Butandiol] | 1.3%

test system: RMA; conditions: carbonyl compound 1.5 mM, NADH 0.25 mM, pH 6.5, 30° C.; acetophenone = 100%

Row | Structure (SMILES) | Relative activity (%) (reducing activity)
22 | CCC(C)=O [2-Butanone] | 54%
23 | CCCCCC(C)=O [2-Heptanone] | 82%
24 | CC(C)=O [Acetone] | 28%
25 | CC(=O)CCc1ccccc1 [Benzylacetone] | 33%
26 | CC(=O)c1cccc([N+](=O)[O-])c1 [m-Nitroacetophenone] | 89%
27 | CCOC(=O)CC(=O)CN=[N+]=[N-] [Ethyl 4-azideacetoacetate] | 21%
28 | CC(=O)CC(=O)Nc1ccccc1 [Acetoacetoanilide] | 1%
29 | CC(=O)c1cc2ccoc2cn1 [5-Acetylfuro[2.3-c]pyridine] | 63%
30 | CC(=O)c1cccnc1 [3-Acetylpyridine] | 19%
31 | CCOC(=O)C(C)=O [Ethyl pyruvate] | 87%
32 | CC(=O)c1ccncc1 [4-Acetylpyridine] | 83%
33 | CC(=O)c1ccccc1 [Acetophenone] | 100%
34 | CC(=O)c1ccco1 [2-Acetyrfuran] | 8%
35 | CC(=O)CC(C)=O [Acethylacetone] | 19%
36 | COC(=O)CC(C)=O [Methyl acetoacetate] | 66%
37 | O=Cc1ccncc1 [4-Pyridinecarbaldehyde] | 5%
38 | CC(=O)c1ccccn1 [2-Acetylpyridine] | 63%
39 | CCCCCCCCOC(=O)CC(=O)CCl [n-Octyl 4-chloroacetoacetate] | 24%
40 | CC(=O)CC(=O)Nc1ccc(C)cc1 [N-Acetoacetyl-p-toluidine] | 2%
41 | CC(=O)c1ccc(F)cc1 [p-Fluoroacetophenone] | 110%
42 | CC(=O)c1cccc(O)c1 [m-Hydroxyacetophenone] | 12%
43 | CC(=O)c1ccccc1Cl [o-Chloroacetophenone] | 2%

Row | Structure (SMILES) | Relative activity (%) (reducing activity)
44 | CC(=O)C(C)C [Methyl iso-propyl ketone] | 4%
45 | O=Cc1ccccn1 [2-Pyridinecarbaldehyde] | 11%
46 | O=Cc1ccccc1[N+](=O)[O-] [o-Nitrobenzeldehyde] | 29%
47 | CCOC(=O)CC(=O)CCl [Ethyl 4-chloroacetoacetate] | 52%
48 | O=Cc1ccccc1 [Benzaldehyde] | 29%
49 | O=C1CCCC1 [Cyclopentanone] | 10%
50 | CC(=O)CC(C)C [4-Methyl-2-pentanone] | 70%
51 | CC(=O)c1ccc(C)cc1 [p-Methylacetophenone] | 91%
52 | O=C1CCSC1 [Tetrahydrothiophen-3-one] | 4%
53 | CCCCCC=O [n-Hexylaldehyde] | 117%
54 | O=Cc1ccc([N+](=O)[O-])cc1 [p-Nitrobenzaldehyde] | 27%
55 | CC(=O)C(Cl)C(C)=O [3-Chloro-2,4-pentadione] | 43%
56 | CCC=O [Propionaldehyde] | 39%
57 | CCOC(=O)c1ccc(C(C)=O)cc1 [Ethyl 4-acetylbenzoate] | 70%
58 | COc1cccc(C(C)=O)c1 [m-Methoxyacetophenone] | 111%
59 | COc1ccccc1NC(=O)CC(C)=O [o-Acetoacetanisidide] | 35%
60 | CCCC(C)=O [2-Pentanone] | 141%
61 | CCOC(=O)CC(C)=O [Ethyl 3-oxobutanoate] | 93%
62 | CC(=O)c1ccc(Cl)cc1 [p-Chloroacetohenone] | 130%
63 | CCCCCCC(C)=O [2-Octanone] | 95%
64 | CC(=O)C(C)=O [diacethyl] | 24%
65 | O=CCCc1ccccc1 [3-Phenypropionaldehyde] | 112%

Row | Structure (SMILES) | Relative activity (%) (reducing activity)
66 | CC(=O)CC(N)=O [Acetoacetamide] | 10%
67 | CCCC(=O)CC(=O)OCC [Ethyl 3-oxohexanate] | 2%
68 | CCCCC(C)=O [2-Hexanone] | 87%
69 | CC(=O)CC(=O)Nc1ccc(Cl)cc1 [4′-Chroloacetoacetanilide] | 4%
70 | COC(=O)CC(=O)CCl [Methyl 4-chloroacetoacetate] | 35%
71 | O=Cc1cccc([N+](=O)[O-])c1 [m-Nitrobenzaldehyde] | 28%
72 | CCOC(=O)CC(=O)COCc1ccccc1 [Ethyl 4-benzyloxyacetoacetate] | 10%
73 | CCCCCC(=O)CC [3-Octanone] | 3%
74 | CC(C=O)c1ccccc1 (stereo not drawn) [2-Phenypropionaldehyde] | 37%
75 | CC(=O)CC(=O)OCc1ccccc1 [Benzyl acetoacetate] | 115%
76 | COC(=O)C(C)=O [Methyl pyruvate] | 71%
77 | CCOC(=O)C(Cl)C(C)=O (stereo not drawn) [Ethyl 2-chloroacetoacetate] | 26%
78 | CC(=O)c1cccc(Cl)c1 [m-Chloroacetophenone] | 130%
79 | CCCC=O [n-Butyraldehyde] | 117%
80 | CC(=O)c1cnccn1 [Acetypyrazine] | 76%
81 | CC(=O)CC(=O)Nc1cc(Cl)ccc1Cl [2′,5′-Dichloro acetoacetanilide] | 34%
82 | CC(=O)c1ccccc1O [o-Hydroxyacetophenone] | 9%
83 | CC(=O)CC(=O)OC(C)(C)C [tert-Butylacetoacetate] | 88%
84 | O=CCCCC=O [Glutaraldehyde] | 9%
85 | CCCCCCCCC(=O)C(=O)OC [Methyl 2-oxodecanate] | 2%
86 | COc1ccccc1C(C)=O [o-Methoxyacetophenone] | 10%

same assay, conditions: pH 6.5

Row | Structure (SMILES) | Relative activity (%) (reducing activity)
87 | O=C(CCl)c1cccc(Cl)c1 [2-Chloro-1-(3′-cholophenyl)ethanone] | 20%

test system: RMA; format: biochemical, Candida maltosa IFO 1977 strain; conditions: inhibitor 1 mM, 30° C. for 30 minutes; untreated RMA = 100%
Method: In 1 mM concentration solution or mixture of various compounds, a polypeptide is treated at 30° C. for 30 minutes. […] Concentrations of agents at the time of treatment are illustrated in Table 6.

Row | Structure (SMILES) | Relative activity (%) of RMA after treatment with inhibitor
88 | O=S(=O)(F)Cc1ccccc1 [Phenylmethanesulfonyl fluoride] | 96.0%
89 | c1cnc2c(c1)ccc1cccnc12 [o-Phenanthroline] | 0.0%
90 | OCCS [β-Mercaptoethanol] | 95.4%
91 | CCN1C(=O)C=CC1=O [N-Ethylmaleimide] | 94.7%
92 | O[C@H](CS)[C@H](O)CS (racemic) [Dithiothreitol] | 92.2%
93 | O=S(=O)([O-])[O-].[Cu+2] [CuSO4, copper sulfate] | 28.5%
94 | [Cl][Hg][Cl] [HgCl2, mercury chloride] | 0.0%
95 | O=C(O)c1ccc(O)cc1 [p-Hydroxybenzoic acid] | 91.5%
96 | O=S(=O)([O-])[O-].[Zn+2] [ZnSO4, zinc sulfate] | 23.1%

same assay, conditions: treatment at 30° C. for 30 minutes, concentrations of Table 6

Row | Structure (SMILES) | inhibition of RMA (in words)
97 | c1cnc2c(c1)ccc1cccnc12 [o-Phenanthroline] | inhibited
98 | OCCS [β-Mercaptoethanol] | did not
99 | O[C@H](CS)[C@H](O)CS (racemic) [Dithiothreitol] | did not
100 | O=S(=O)([O-])[O-].[Cu+2] [CuSO4, copper sulfate] | inhibited
101 | [Cl][Hg][Cl] [HgCl2, mercury chloride] | inhibited
102 | O=S(=O)([O-])[O-].[Zn+2] [ZnSO4, zinc sulfate] | inhibited
